≈ marks a conversion by molar mass, not a printed value. Where two headings read alike, the source gives them in different places. Each block holds one compound with its values, some of them ahead of it.
Legend:
P. aeruginosa = assay: Broth microdilution (BMD) MIC; type: cell-based, Pseudomonas aeruginosa; set-up: key to susceptibility classification, BMD: (S) sensitive; (I) intermediate; (R) resistant; conditions: for MIC: Pseudomonas aeruginosa
Method: (§1) Microbroth dilution for minimum inhibitory concentrations (MIC) with and without sucrose recovery. To isolate bacteria without sucrose, culture media from positive BacT/alert FA PLUS aerobic culture bottles (bioMérieux, Durham, NC) was serially diluted and plated onto LB agar (Lennox; Sigma-Aldrich, St. Louis, MO). Bacterial suspensions were prepared by resuspending colonies in CAMHB with incubation on a MaxQ 4000 incubator shaker (Thermo Fisher Scientific, Waltham, MA) at 37° C. and ˜225 rpm for 3 hours. Bacteria recovered via Method 2 were diluted 10-fold in CAMHB. Following incubation or sucrose recovery and dilution, bacterial suspensions were adjusted to ˜0.004 OD600 with CAMHB and a 50-μL aliquot distributed to each well of a 96-well plate containing CAMHB with and without clinically relevant antibiotics (2-fold dilution series). Gram-negative plates included: ceftazidime (3rd generation cephalosporin, RPI corp., Mount Prospect, IL), cefepime (4th generation cephalosporin, Chem-Impex Int'l, Wood Dale, IL), meropenem (carbapenem, Tokyo Chemical Industry, Tokyo, Japan), levofloxacin (quinolone, Alfa Aesar, Haverhill, MA), and tobramycin (aminoglycoside, MP Biomedicals LLC, Santa Ana, CA), while S. aureus plates contained: oxacillin (beta-lactam, Sigma-Aldrich, St. Louis, MO), vancomycin (glycopeptide, Santa Cruz Biotechnology, Dallas, TX), erythromycin (macrolide, Sigma-Aldrich, St. Louis, MO), clindamycin ([…]), and ciprofloxacin (fluoroquinolone, Sigma-Aldrich, St. Louis, MO). Antibiotic plates were incubated at 37° C. for 16-20 hours (gram-negative) or 35° C. for 24 hours (S. aureus), at which time, plates were removed from the incubator and visually inspected for bacterial growth. The MIC was set at the lowest antibiotic concentration at which no growth was detected.

E. coli [1] = assay: Broth microdilution (BMD) MIC; type: cell-based, Escherichia coli; set-up: key to susceptibility classification, BMD: (S) sensitive; (I) intermediate; (R) resistant; conditions: broth microdilution; for MIC: Escherichia coli, read-out: Minimum inhibitory concentration, BMD
Method: as §1

P. aeruginosa 77 = assay: Microbroth dilution MIC with and without sucrose recovery; type: cell-based, Pseudomonas aeruginosa; conditions: MIC given as multiple of S/I/R; for minimum inhibitory concentration (MIC), Standard: P. aeruginosa 77 recovered by standard plating
Method: as §1
Influence of Sucrose on Bacterial MIC. To rule out the potential effect of sucrose exposure in bacterial antibiotic susceptibility, microbroth dilution studies were performed on bacteria recovered using standard practices (i.e. plating following positive blood culture) and through selective lysis coupled with centrifugation through the sucrose cushion (Method 2).

E. coli [2] = assay: Direct flow cytometric AST (high-throughput flow cytometry, HTFC) of sucrose-recovered bacteria; type: cell-based, Escherichia coli; set-up: key to susceptibility classification, HTFC: (S) sensitive; (I) intermediate; (R) resistant; conditions: sucrose-recovered, antibiotic 4 hours (37° C.); for MIC: Escherichia coli, 4 h, read-out: Minimum inhibitory concentration, HTFC
Method: AST workflow using bacteria recovered directly from positive blood culture. A 1-mL aliquot of bacteria recovered using separation method 2 was diluted 10-fold in CAMHB, the OD600 adjusted to ˜0.01, and a 50 μL aliquot distributed into each well of a 96-well plate containing CAMHB with and without ceftazidime, tobramycin, and either meropenem (E. coli and P. aeruginosa) or oxacillin (S. aureus). Following Clinical and Laboratory Standards Institute (CLSI) guidelines^33, 2% sodium chloride (NaCl) was present in wells containing oxacillin to assist in the detection of methicillin-resistant S. aureus (MRSA). […] To account for observed differences in doubling and lag times, E. coli and P. aeruginosa were incubated for 4 hours at 37° C., while S. aureus was incubated for 9 hours at 35° C. After incubation, antibiotic plates were removed from the incubator and directly stored on ice (i.e. no post-processing) until high-throughput flow cytometry (BD LSRFortessa with HTS-system, BD, Franklin Lakes, NJ). No-antibiotic controls and antibiotic-treated samples were handled identically.
MIC Determination by flow cytometry. Because antibiotic effects are observed in both the position of scatter signatures (morphology changes) and count rates (growth inhibition), a modified count rate, accounting for scatter position, was used to evaluate susceptibility. Briefly, no-antibiotic control populations (triplicate) were pooled, binned, and a convex hull boundary set at 1-standard deviation above the background (not including bins with zero counts) was drawn. […] The overlap ratio, measuring changes in morphology, was then computed by dividing the number of sample events within the no-antibiotic control boundary by the total number of events within the sample. As an increase in count rate attributed to viable bacteria in antibiotic-treated samples is not scientifically meaningful, the fractional overlap was multiplied by the minimum of the control and sample count rates to generate a modified count rate accounting for antibiotic-induced morphological changes. All modified count rates were normalized by the average of the no-antibiotic controls. For automatic MIC determination, normalized count rates corresponding to n (index of predicted MIC), n+1, n+2 were iteratively fit to a linear function with a frameshift of n+1 between iterations (FIGS. 8 and 9). […] A threshold of −0.01 instead of zero was used to mitigate the influence of small fluctuations in normalized count rates on susceptibility determinations.

[3] = P. aeruginosa Blood Culture B, broth microdilution
[4] = P. aeruginosa Blood Culture C, broth microdilution
[5] = P. aeruginosa PA7, broth microdilution
[6] = P. aeruginosa PA46, broth microdilution
[7] = P. aeruginosa PA49, broth microdilution
[8] = P. aeruginosa PA81, broth microdilution
[9] = P. aeruginosa PAO1, broth microdilution
[10] = P. aeruginosa Blood Culture B, broth microdilution, read-out: Minimum inhibitory concentration, BMD
[11] = P. aeruginosa Blood Culture C, broth microdilution, read-out: Minimum inhibitory concentration, BMD
[12] = P. aeruginosa PA7, broth microdilution, read-out: Minimum inhibitory concentration, BMD
[13] = P. aeruginosa PA46, broth microdilution, read-out: Minimum inhibitory concentration, BMD
[14] = P. aeruginosa PA49, broth microdilution, read-out: Minimum inhibitory concentration, BMD
[15] = P. aeruginosa PA81, broth microdilution, read-out: Minimum inhibitory concentration, BMD
[16] = PAO1, P. aeruginosa PAO1, broth microdilution, read-out: Minimum inhibitory concentration, BMD

MIC (P. aeruginosa; [10]): 4 µg/mL (≈ 7.32 µM)
MIC (P. aeruginosa; [11]): 1 µg/mL (≈ 1.83 µM)
MIC (P. aeruginosa; [12]): 128 µg/mL (≈ 234 µM)
MIC (P. aeruginosa; [13]): 1 µg/mL (≈ 1.83 µM)
MIC (P. aeruginosa; [14]): 2 µg/mL (≈ 3.66 µM)
MIC (P. aeruginosa; [15]): 4 µg/mL (≈ 7.32 µM)
MIC (P. aeruginosa; [16]): 1 µg/mL (≈ 1.83 µM)
MIC (E. coli [1]; E. coli Blood Culture A): 16 µg/mL (≈ 29.3 µM)
MIC (E. coli [1]; E. coli Blood Culture B): 64 µg/mL (≈ 117 µM)
MIC (E. coli [1]; E. coli EC37): 32 µg/mL (≈ 58.5 µM)
MIC (E. coli [1]; E. coli EC-bank): 32 µg/mL (≈ 58.5 µM)
MIC (E. coli [1]; E. coli Mu76): 2 µg/mL (≈ 3.66 µM)
MIC (E. coli [1]; E. coli Mu218): 32 µg/mL (≈ 58.5 µM)
MIC (E. coli [1]; E. coli Mu890): 0.5 µg/mL (≈ 0.915 µM)
minimum inhibitory concentration (MIC), Standard (P. aeruginosa 77): ½S
minimum inhibitory concentration (MIC), Sucrose (P. aeruginosa 77; P. aeruginosa 77 recovered through sucrose (Method 2)): ¼S
Compound: CC(C)(O/N=C(\C(=O)N[C@@H]1C(=O)N2C(C(=O)[O-])=C(C[n+]3ccccc3)CS[C@H]12)c1csc(N)n1)C(=O)O [Ceftazidime, ceftazidime]
susceptibility classification, BMD (P. aeruginosa; [3]): (S)
susceptibility classification, BMD (P. aeruginosa; [4]): (S)
susceptibility classification, BMD (P. aeruginosa; [5]): (R)
susceptibility classification, BMD (P. aeruginosa; [6]): (S)
susceptibility classification, BMD (P. aeruginosa; [7]): (S)
susceptibility classification, BMD (P. aeruginosa; [8]): (S)
susceptibility classification, BMD (P. aeruginosa; [9]): (S)
susceptibility classification, BMD (E. coli [1]; E. coli Blood Culture A): (R)
susceptibility classification, BMD (E. coli [1]; E. coli Blood Culture B): (R)
susceptibility classification, BMD (E. coli [1]; E. coli EC37): (R)
susceptibility classification, BMD (E. coli [1]; E. coli EC-bank): (R)
susceptibility classification, BMD (E. coli [1]; E. coli Mu76): (S)
susceptibility classification, BMD (E. coli [1]; E. coli Mu218): (R)
susceptibility classification, BMD (E. coli [1]; E. coli Mu890): (S)
susceptibility classification, HTFC (E. coli [2]; E. coli Blood Culture A): (I)
susceptibility classification, HTFC (E. coli [2]; E. coli Blood Culture B): (R)
susceptibility classification, HTFC (E. coli [2]; E. coli EC37): (I)
susceptibility classification, HTFC (E. coli [2]; E. coli EC-bank): (R)
susceptibility classification, HTFC (E. coli [2]; E. coli Mu76): (S)
susceptibility classification, HTFC (E. coli [2]; E. coli Mu218): (R)
susceptibility classification, HTFC (E. coli [2]; E. coli Mu890): (S)
MIC (E. coli [2]; E. coli Blood Culture A): 8 µg/mL (≈ 14.6 µM)
MIC (E. coli [2]; E. coli Blood Culture B): 32 µg/mL (≈ 58.5 µM)
MIC (E. coli [2]; E. coli EC37): 8 µg/mL (≈ 14.6 µM)
MIC (E. coli [2]; E. coli EC-bank): 16 µg/mL (≈ 29.3 µM)
MIC (E. coli [2]; E. coli Mu76): 1 µg/mL (≈ 1.83 µM)
MIC (E. coli [2]; E. coli Mu218): 16 µg/mL (≈ 29.3 µM)
MIC (E. coli [2]; E. coli Mu890): ≤ 0.25 µg/mL

MIC (P. aeruginosa; [10]): 8 µg/mL (≈ 20.9 µM)
MIC (P. aeruginosa; [11]): 0.25 µg/mL (≈ 0.652 µM)
MIC (P. aeruginosa; [12]): 1 µg/mL (≈ 2.61 µM)
MIC (P. aeruginosa; [13]): 0.25 µg/mL (≈ 0.652 µM)
MIC (P. aeruginosa; [14]): 0.5 µg/mL (≈ 1.3 µM)
MIC (P. aeruginosa; [15]): 8 µg/mL (≈ 20.9 µM)
MIC (P. aeruginosa; P. aeruginosa, strain not named (FIG. 13), read-out: MIC as determined by broth microdilution): 1 µg/mL (≈ 2.61 µM)
MIC (P. aeruginosa; [16]): 0.5 µg/mL (≈ 1.3 µM)
MIC (E. coli [1]; E. coli Blood Culture A): ≤ 0.06 µg/mL
MIC (E. coli [1]; E. coli Blood Culture B): ≤ 0.06 µg/mL
MIC (E. coli [1]; E. coli EC37): ≤ 0.06 µg/mL
MIC (E. coli [1]; E. coli EC-bank): 2 µg/mL (≈ 5.22 µM)
MIC (E. coli [1]; E. coli Mu76): 0.5 µg/mL (≈ 1.3 µM)
MIC (E. coli [1]; E. coli Mu218): ≤ 0.06 µg/mL
MIC (E. coli [1]; E. coli Mu890): ≤ 0.06 µg/mL
minimum inhibitory concentration (MIC), Standard (P. aeruginosa 77): ⅛S
Compound: C[C@@H](O)[C@H]1C(=O)N2C(C(=O)O)=C(S[C@@H]3CN[C@H](C(=O)N(C)C)C3)[C@H](C)[C@H]12 [Meropenem, meropenem]
susceptibility classification, BMD (P. aeruginosa; [3]): (R)
susceptibility classification, BMD (P. aeruginosa; [4]): (S)
susceptibility classification, BMD (P. aeruginosa; [5]): (S)
susceptibility classification, BMD (P. aeruginosa; [6]): (S)
susceptibility classification, BMD (P. aeruginosa; [7]): (S)
susceptibility classification, BMD (P. aeruginosa; [8]): (R)
susceptibility classification, BMD (P. aeruginosa; [9]): (S)
susceptibility classification, BMD (E. coli [1]; E. coli Blood Culture A): (S)
susceptibility classification, BMD (E. coli [1]; E. coli Blood Culture B): (S)
susceptibility classification, BMD (E. coli [1]; E. coli EC37): (S)
susceptibility classification, BMD (E. coli [1]; E. coli EC-bank): (I)
susceptibility classification, BMD (E. coli [1]; E. coli Mu76): (S)
susceptibility classification, BMD (E. coli [1]; E. coli Mu218): (S)
susceptibility classification, BMD (E. coli [1]; E. coli Mu890): (S)
susceptibility classification, HTFC (E. coli [2]; E. coli Blood Culture A): (S)
susceptibility classification, HTFC (E. coli [2]; E. coli Blood Culture B): (S)
susceptibility classification, HTFC (E. coli [2]; E. coli EC37): (S)
susceptibility classification, HTFC (E. coli [2]; E. coli EC-bank): (S)
susceptibility classification, HTFC (E. coli [2]; E. coli Mu76): (R)
susceptibility classification, HTFC (E. coli [2]; E. coli Mu218): (S)
susceptibility classification, HTFC (E. coli [2]; E. coli Mu890): (S)
MIC (E. coli [2]; E. coli Blood Culture A): ≤ 0.06 µg/mL
MIC (E. coli [2]; E. coli Blood Culture B): ≤ 0.06 µg/mL
MIC (E. coli [2]; E. coli EC37): ≤ 0.06 µg/mL
MIC (E. coli [2]; E. coli EC-bank): ≤ 0.06 µg/mL
MIC (E. coli [2]; E. coli Mu76): 4 µg/mL (≈ 10.4 µM)
MIC (E. coli [2]; E. coli Mu218): ≤ 0.06 µg/mL
MIC (E. coli [2]; E. coli Mu890): ≤ 0.06 µg/mL
